Results from patent publication US9173871B2, “Oxazole and thiazole compounds as beta-catenin modulators and uses thereof” (New York University, priority 2008, dated 2015).

Tests used:
HCT116 cells = experiment: Flow cytometry cell cycle analysis of HCT116 cells; type: cell-based; conditions: HCT116, 16 hrs, FIG. 9
Procedure: In order to test the inhibitory effect of candidate compounds on the transcription of endogenous Wnt/β-cat target genes in HCT116 cells, lysates were prepared from cells that were either treated with candidate small molecules or DMSO control. […] Cell cycle arrest of compound treated HCT116 cells was further confirmed by the reduced number of phosphorylated Histone3 (PH3) positive cells, when cultured in the presence of candidate compounds (FIG. 10).
Flow Cytometry analysis was performed on HCT116 cells treated with candidate compounds for 16 hrs per standard protocols. Briefly, compound treated cells were harvested and washed in 1×PBS followed by fixation in 70% Ethanol at 4° C. for 16 hrs. Cells were then washed in 1×PBS and treated with RNAse at 37° C. for 30′. Following extensive washes in 1×PBS, cellular DNA was stained with 500 ug/ml of Propidium Iodide at room temperature for 10′. Cells were washed again in 1×PBS and analysed by flow cytometry on a FACScalibur machine (Beckson Dickinson) at the NYU flow cytometry core facility.

[1] = tested on: Wnt/wg pathway, Wnt-responsive luciferase reporter dTF12; experiment: Wg-responsive dTF12 (TOP12) luciferase reporter assay in Drosophila Clone 8 cells, pathway activated by Axin dsRNA; type: cell-based; conditions: Drosophila melanogaster; luciferase assay method in Drosophila Clone 8 cells
Description: The present inventors employed a novel methodology that integrates a “sensitized” chemical genetic high-throughput screen (HTS) with RNA-interference (RNAi) screening technology in order to identify specific small molecule inhibitors of the Wnt pathway in Drosophila cells. As described herein, Drosophila Clone 8 cell-based assay systems developed by the present inventors to investigate the Wnt/wg pathway [DasGupta et al. Science 308, 826-33 (2005)] were used in a small molecule chemical genetic screen to identify specific inhibitors of the pathway. These cell-based assays, which are described in detail below, utilize a Wnt-responsive luciferase reporter […], the activity of which can be determined using […]. The present inventors used the small-molecule library available from the Institute of Chemistry and Cellular Biology (ICCB-Longwood) at Harvard Medical School, Boston, for the screen. […] The resultant activation of the Wnt signaling pathway is then detected by assessing the activity of the Wnt-responsive luciferase reporter gene in the cell-based assay system. […] Primary Small Molecule Screen for the Wingless Signaling Pathway in Drosophila Clone 8 Cells Set up transfection with Wg-reporter ([…]), Normalization vector (PolIII-RL) and dsRNA against […] specific towards Drosophila Axin and lacks any predicted off-targets). 1. Add 40,000 Drosophila Clone 8 cells (in 40 μL) in 384-well plate (white solid bottom, Corning Costar) using the multidrop. 2. Add 20 μLof Transfection mix in each well of a 384-well plate (Corning Costar) using the multidrop. Incubate at 25° C. for 4 days to ensure complete knockdown of Axin. Add small molecule library (Cybio Robot). Incubate 18 hrs. Assay luminescence from the samples using the “Dual-Glo” luciferase kit (Promega Inc.). Specifically, aspirate supernatant and add 20 μL media+20 μL luciferase buffer using the multidrop. Read Firefly Luciferase activity on the EnVision (Perkin Elmer plate reader). Add 20 μL of Stop&Glo using the multidrop. Read Renilla luciferase activity on the EnVision (Perkin Elmer plate reader). The Wnt signaling pathway was induced by the introduction of dsRNAs specific for Axin into Clone 8 cells comprising the Wg-responsive luciferase reporter-gene ([…]). As described herein, Axin is a scaffold protein that negatively regulates Arm/β-cat by promoting its degradation. Thereafter, a selected set of a small molecule library was added to the Clone 8 cell-based assay system to assess the effect of individual compounds on (Axin dsRNA-mediated) activated CRT by monitoring the activity of the Wg-responsive luciferase reporter-gene ([…]). […] For the purpose of Table 11 below, activity of each compound is determined using the luciferase assay method in Drosophila Clone 8 cells.

[2] = tested on: Wnt-responsive STF16 luciferase reporter in HEK 293 cells; experiment: Wnt-responsive STF16 luciferase reporter assay in HEK 293 cells; type: cell-based, mammalian; conditions: 2.5 ng/μl, Wnt3a conditioned media, FIG. 4
Procedure: HEK 293 cells were transfected with 50 ng each of the Wnt-responsive STF16 luciferase reporter and pCMV-RL normalization reporter using the Lipofectamine LTX (Invitrogen Inc.) in a 96 well plate format. Cells were cultured in DMEM/10% FBS at 37° C. for 2 days following which, they were induced with Wnt3a conditioned media for 1 day and then treated with small molecule compounds to a final concentration of 2.5 ng/μl for approximately 18 hours. Luciferase reporter activity was then measured using the Dual-Glo system (Promega Inc.) on the Envision Plate Reader. Normalized luciferase activity in response to treatment with candidate small molecule compounds was compared to that obtained from cells treated with DMSO. In order to confirm and corroborate the activity of CRT inhibitor compounds in a mammalian context, the present inventors have tested a subset of the inhibitors identified in the context of established mammalian cell lines. […] Briefly, HEK 293 cells were transfected with pSTF16-LF along with the normalization reporter, pCMV-RL and the effect of the compounds on reporter activity in such cells was determined by quantifying the luminescence from the luciferase reporter gene as described in Dasgupta et al. [supra (2005)].

[3] = tested on: C57 mg mouse mammary epithelial cell line; experiment: C57mg transformation assay (Wnt3a induced); type: cell-based; conditions: 10 ng/μl, 5 days, FIG. 5
Procedure: The transformation assay was carried out in a 96 well format. C57 mg cells were cultured in DMEM/10% FBS supplemented with purified Wnt3a protein (R&D Systems) to a final concentration of […]. Small molecule compounds dissolved in DMSO were added to a final concentration of 10 ng/μl and 0.01% DMSO. Following incubation at 37° C. for 5 days, cells were fixed with 4% Formaldehyde in 1×PBS at RT for 30 min and washed subsequently with 1×PBS at room temperature (RT) for 5 minutes (×3). Cells were then permeabilized in Blocking buffer (0.1% Triton-X/1×PBS/5% Normal Goat Serum) at RT for 20 min, subsequent to which, cells were incubated with anti-β-cat at RT for 1 hour (diluted to 1:1000 in blocking buffer). Subsequently, cells were washed with 1×PBS at RT for 10 minutes (×3) and then incubated with secondary antibody and Alexa-Fluor 488 conjugated phalloidin in Blocking buffer at RT for 1 hour. Following a brief wash in 1×PBS, cells were imaged in PBS buffer using the Array-Scan imaging system.
Transformation of the cell line is evidenced by pronounced changes in morphology, typified by formation of chord-like bundles of cells or foci-forming colonies that break off and float in the media [Wong et al. supra, 1994]. This Wnt responsive phenotype provides a mammalian assay in which to evaluate the inhibitory effect of the small molecule inhibitors identified in the primary screen. Briefly, cells are cultured in Wnt3a conditioned media in the presence or absence of a small molecule inhibitor and morphological analysis conducted using automated microscopy.
The present inventors have established a phenotypic assay using the Wnt-responsive C57 mg mouse mammary epithelial cell line to ascertain the validity of the inhibitory compounds identified in the primary screen. Specifically, addition of Wnt3a conditioned media or purified Wnt3a protein results in cellular transformation, manifested by a pronounced change from an epithelial-cell like morphology to those resembling spindle shaped cells with chord like bundles. […] The Array-Scan imagining system (Cellomics Inc.) is used to image such phenotypic changes in a 96-well plate format so as to gain a quantitative estimate of the degree of the inhibitory effect of the compounds on Wnt3a induced transformation in C57 mg cells. Quantitative analysis of the transformation phenotype is measured by the degree of actin fiber alignment (defined as anisotropy), which is expressed as the standard deviation (SD) of the angles projected by the actin fibers relative to the normal; low SD numbers reflect an increase in Wnt-responsive transformation. This approach allows for objective inferences on the cellular effects of the candidate inhibitors.

In the case of `Cc1cc(/C=C2\SC(=O)N(c3ccccc3)C2=O)c(C)n1-c1cccnc1` [Compound C14], the cell cycle effect (HCT116 cells) is reported as “G0/G1 arrest”.
In the case of `CCc1ccc(-c2nc(CSCC(=O)NCc3ccccc3)c(C)o2)cc1` [IIa-66], the IC50 [1] is reported as 3.51 µM.
Work on `COc1cccc(/C=C2\SC(=S)N(CCCC(=O)O)C2=O)c1OC` [IIa-143] yielded an IC50 [1] of 3.06 µM.
Work on `CCc1ccc(-c2nc(CSCC(=O)NCCc3ccccc3)c(C)o2)cc1` [IIa-333] yielded an IC50 [1] of 4.18 µM.
For `O=C(CCCN1C(=O)/C(=C/c2cccs2)SC1=S)Nc1ccc(O)cc1` [IIa-432], the “inhibition of Wnt responsive luciferase reporter activity in HEK-293 cells” value [2] was “poor inhibitors”, the “inhibition of Wnt3a induced C57 mg transformation” value [3] was “significant inhibition” and the IC50 [1] was 4.76 µM.
`CCc1ccc(-c2nc(CSCC(=O)NC3CC3)c(C)o2)cc1` [IIa-719] was tested, and the “inhibition of Wnt3a induced C57 mg transformation” value [3] was “partial reduction” and the IC50 [1] was 1.58 µM.
`Cc1ccc(-c2nc(CSCC(=O)NC3CC3)c(C)o2)cc1` [IIa-722] was tested, and the “inhibition of Wnt3a induced C57 mg transformation” value [3] was “partial reduction” and the IC50 [1] was 1260 µM.
`CCc1ccc(-c2nc(CSCC(=O)N3CCc4ccccc43)c(C)o2)cc1` [IIa-2102] was tested, and the “inhibition of Wnt3a induced C57 mg transformation” value [3] was “partial reduction” and the IC50 [1] was 1.1 µM.
